Read-outs that look alike come from different tables or passages of the source.
Key:
[1] = test system: HCT-116 human colon carcinoma; assay: In vivo antitumor efficacy in combination with 5-FU, subcutaneous xenograft; details: for T − C: time to reach 1 g
Method: Balb, Nu/Nu male mice, from Harlan (Italy), were maintained in cages with paper filter cover, food and bedding sterilized and water acidified. Fragments of HCT-116 human colon carcinoma were implanted subcutaneously in athymic mice.
(§1) The treatment started when tumors were palpable. Both compounds were prepared immediately before treatment.
5-FU was administered by intravenous route in a volume of 10 ml/kg at the dose of 50 mg/kg on days 1, 8. […] Toxicity was evaluated on the basis of body weigh reduction.

[2] = test system: A2780 human ovarian carcinoma cells; assay: In vitro cytotoxic activity of the combination with gemcitabine (cell proliferation, cellular ATP monitoring); type: cell-based; details: for IC50: Homo sapiens, single agent, A2780, compound of formula (I) 24 hours, gemcitabine 1 hour, counted 72 hours after first treatment
Method: (§2) Exponentially growing A2780 human ovarian carcinoma cells were seeded and incubated at 37° C. in a humidified 5% CO2 atmosphere. After 24 hours, scalar doses of the compound of formula (I) were added to the medium for 24 hours, cells were washed and gemcitabine added for 1 hour. Cells were then washed and counted 72 hours after the first treatment. Cell proliferation was determined by a cellular adenosine triphosphate monitoring system. Cell proliferation was compared to control cells. The concentration inhibiting cell proliferation by 50% (IC50) was calculated.
(§3) The combination indices (C.I.) were calculated using a computer program for multiple drug effect analysis based on the equation of Chou-Talalay (Adv Enzyme Regul 1984; 22:27-55) for mutually nonexclusive drugs, where a C.I. of <1 indicates a more than additive effect.

[3] = test system: A2780 human ovarian carcinoma cells; assay: In vitro cytotoxic activity of the combination with oxaliplatin (cell proliferation, cellular ATP monitoring); type: cell-based; details: for IC50: single agent, A2780, oxaliplatin 1 hour, compound of formula (I) 24 hours, counted 72 hours after first treatment
Method: as §2, with “of oxaliplatin” for “of the compound of formula (I)”, “for 1 hour,” for “for 24 hours,”, “and compound of formula (I)” for “and gemcitabine”, “for 24 hours.” for “for 1 hour.”
as §3

[4] = test system: A2780 human ovarian carcinoma cells; assay: In vitro cytotoxic activity of the combination with SN-38 (cell proliferation, cellular ATP monitoring); type: cell-based; details: for IC50: single agent, A2780, SN-38 1 hour, compound of formula (I) 24 hours, counted 72 hours after first treatment
Method: as §2, with “SN38 is the active metabolite of irinotecan, from which is obtained by hydrolysis. Exponentially” for “Exponentially”, “of SN-38” for “of the compound of formula (I)”, “for 1 hour,” for “for 24 hours,”, “and compound of formula (I)” for “and gemcitabine”, “for 24 hours.” for “for 1 hour.”
as §3

[5] = test system: U87-MG human glioblastoma; details: for T − C: time to reach 1 g; for Toxicity: male, Balb Nu/Nu (athymic), mouse, in vivo, po, 7 days
Method: Balb, Nu/Nu male mice, from Harlan (Italy), were maintained in cages with paper filter cover, food and bedding sterilized and water acidified. Fragments of U87-MG human glioblastoma were implanted subcutaneously in athymic mice. […] The treatment with temozolomide started when tumors were palpable. Compounds were prepared immediately before treatment.
(§4) Temozolomide was administered orally in a volume of 10 ml/kg at the dose of 25 mg/kg for 5 consecutive days. […] Tumor growth and body weight were measured every 3 days. Tumor growth was assessed by caliper. The two diameters were recorded and the tumor weight was calculated according the following formula: length (mm)×width^2/2. The effect of the antitumor treatment was evaluated as the delay in the onset of an exponential growth of the tumor (see for references, Anticancer drugs 7:437-60,1996). This delay (T-C value) was defined as the difference of time (in days) required for the treatment group (T) and the control group (C) tumors to reach a predetermined size (1 g). Toxicity was evaluated on the basis of body weigh reduction.

[6] = test system: N-592 human small cell lung cancer tumors; details: for T − C: time to reach 1 g; for Toxicity: male, Balb Nu/Nu (athymic), mouse, in vivo, po, 17 days
Method: Balb, Nu/Nu male mice, from Harlan (Italy), were maintained in cages with paper filter cover, food and bedding sterilized and water acidified. Fragments of N-592 human small cell lung cancer tumors were implanted subcutaneously in athymic mice.
as §1
as §4, with “Topotecan” for “Temozolomide”, “by intravenous route” for “orally”, “6” for “25”, “on days 1, 5, 9, 13, 17.” for “for 5 consecutive days.”, “references” for “references,”, “7:437-60, 1996).” for “7:437-60,1996).”

[7] = compound of formula (I) 20 mg/kg orally twice a day, days 1-7
[8] = compound of formula (I) 40 mg/kg orally twice a day, days 1-7
[9] = temozolomide 25 mg/kg orally, days 1-5

`O=c1[nH]cc(F)c(=O)[nH]1` [5-FU, 5-fluorouracil, reference compound] was tested, and the “T − C” value ([1]; 5-FU 50 mg/kg intravenous, days 1, 8) was 2.17 days.
With `Nc1ccn([C@@H]2O[C@H](CO)[C@@H](O)C2(F)F)c(=O)n1` [Gemcitabine, gemcitabine, reference compound] the IC50 [2] was 364 nM.
Compound `O=C1[O][Pt]2([NH][C@@H]3CCCC[C@H]3[NH]2)[O]C1=O` [Oxaliplatin, oxaliplatin, reference compound] has an IC50 [3] of 2470 nM.
`CCc1c2c(nc3ccc(O)cc13)-c1cc3c(c(=O)n1C2)COC(=O)[C@]3(O)CC` [SN-38, reference compound] gave an IC50 [4] of 39 nM.
With `CNC(=O)c1nn(C)c2c1C(C)(C)Cc1cnc(Nc3ccc(N4CCN(C)CC4)cc3)nc1-2` [compound of formula (I), 8-[4-(4-methyl-piperazin-1-yl)-phenylamino]-1,4,4-trimethyl-4,5-dihydro-1H-pyrazolo[4,3-h]quinazoline-3-carboxylic acid methylamide] the IC50 [2] was 419 nM, the combination effect ([2]; compound of formula (I) combined with gemcitabine, human tumor cells) was “more than additive (i.e. synergic) effect” and the IC50 ([3]; Homo sapiens) was 876 nM. The combination effect ([3]; compound of formula (I) combined with oxaliplatin, human tumor cells) was “more than additive (i.e. synergic) effect”, the IC50 ([4]; Homo sapiens) was 690 nM and the combination effect ([4]; compound of formula (I) combined with SN-38, human tumor cells) was “more than additive (i.e. synergic) effect”. For the same compound, the Tumor-free mice [5, 7] was 0/8, the “T − C” value [5, 7] was 1.74 days and the Tumor-free mice [5, 8] was 0/8. For the same compound, the “T − C” value [5, 8] was 7.14 days, the combination effect ([5]; compound of formula (I) combined with temozolomide, U87-MG xenograft) was “clear synergic effect” and the Toxicity ([5]; 20 mg/kg) was 0/8. For the same compound, the Toxicity ([5]; 40 mg/kg) was 0/8, the “T − C” value ([6]; Compound of formula (I) 20 mg/kg orally twice a day, days 1-17) was 1.61 days and the “T − C” value ([6]; Compound of formula (I) 30 mg/kg orally twice a day, days 1-17) was 2.98 days. The combination effect ([6]; compound of formula (I) combined with topotecan, N-592 xenograft) was “clear synergistic effect”, the Toxicity ([6]; 20 mg/kg) was 0/7 and the Toxicity ([6]; 30 mg/kg) was 0/7. The “T − C” value ([1]; Compound of formula (I) 20 mg/kg orally twice a day, days 2-7 and 9-14) was 4.93 days, the combination effect ([1]; compound of formula (I) combined with 5-FU, HCT-116 xenograft) was “clear synergistic effect” and the Toxicity ([1]; male, Balb Nu/Nu (athymic), mouse, in vivo, po, 20 mg/kg) was 0/7.
For `Cn1nnc2c(C(N)=O)ncn2c1=O` [temozolomide, reference compound], the Tumor-free mice [5, 9] was 1/8 and the “T − C” value [5, 9] was 30.88 days.
With `CC[C@@]1(O)C(=O)OCc2c1cc1n(c2=O)Cc2cc3c(CN(C)C)c(O)ccc3nc2-1` [topotecan, reference compound] the “T − C” value ([6]; topotecan 6 mg/kg intravenous, days 1, 5, 9, 13, 17) was 5.64 days.

Source: patent US8518930B2, “Therapeutic combination comprising a CDKS inhibitor and an antineoplastic agent” (Nerviano Medical Sciences S.r.l., priority 2008, dated 2013)
